Consider 1 molecule from article PMC12172035, “The Thienopyrimidinone Gamhépathiopine Targets the QO Site of Plasmodium falciparum Cytochrome b” (ACS Infectious Diseases, 2025).

Structures are written as SMILES.

The assay deals with T1, cytochrome b (Plasmodium falciparum, UniProt Q02768).
T1 construct: gene MT-CYB; native complex III in mitochondrial membrane fraction of P. falciparum 3D7 lysate; with complex III (cytochrome c1, Rieske iron-sulfur protein)
T1 sequence (Q02768 1-376): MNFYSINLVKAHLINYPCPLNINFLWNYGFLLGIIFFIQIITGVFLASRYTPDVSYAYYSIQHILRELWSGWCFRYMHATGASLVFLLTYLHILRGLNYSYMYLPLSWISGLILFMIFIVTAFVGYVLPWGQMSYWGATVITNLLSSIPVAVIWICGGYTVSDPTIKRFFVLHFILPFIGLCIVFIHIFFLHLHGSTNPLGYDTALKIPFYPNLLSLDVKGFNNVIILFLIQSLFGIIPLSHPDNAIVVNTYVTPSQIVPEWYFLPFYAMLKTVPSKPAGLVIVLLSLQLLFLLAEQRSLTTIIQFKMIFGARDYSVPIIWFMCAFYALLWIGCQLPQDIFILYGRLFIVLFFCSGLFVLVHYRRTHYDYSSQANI
In words: complex III activity assay (decylubiquinol-driven cytochrome c reduction, […] nm) in P. falciparum membrane-enriched lysate; supported by resistance mutations in cytochrome b. The class given is cell-based.

Turning to `Cc1ccc(-c2cc3nc(NC(C)(C)C)[nH]c(=O)c3s2)cc1` [gamhépathiopine], the inhibition at 20 µM is above 93%.
